Reference: patent US20220370381A1 (priority 2016, published 2022)

Columns and labels:
[1] = tested on: CRL NMRI mice; assay: Mouse 6-Hz model of refractory seizures; assay type: in vivo; conditions: 5.0 or 20.0 mg/kg i.p.
Procedure: The 6 Hz mouse model is a model system used to assess the efficacy of putative anti-seizure medications for refractory epilepsies generally, without regard to type.
The efficacy of FA in the mouse 6-Hz model was assessed by behavioral characterization after intraperitoneal injection of CRL NMRI mice (30-35 g) with VHC (50/50 DMSO/PEG200) or FA (5.0 or 20.0 mg/kg). Animals were placed in one of three treatment groups: vehicle (n=10), FA 5 mg/kg (n=6) and FA 20 mg/kg (n=6). Seizures were transcorneal-induced 1 h after injection (6-Hz, 0.2 ms pulse width, 44 mA).

[2] = tested on: Swiss OF-1 mice; assay: Step-through passive avoidance, dizocilpine-induced deficit; assay type: in vivo, mouse
[3] = target: T1, human β-2 adrenergic receptor (Homo sapiens, UniProt P07550); assay: Competitive radioligand binding assay, β2-adrenergic; conditions: test article 1×10^−6 and 1×10^−5 mol/L; human recombinant
[4] = target: T2, serotonin 5-HT1A (Rattus norvegicus, UniProt P19327); assay: Competitive radioligand binding assay, serotonin 5-HT1A
T2 construct: serotonin 5-HT1A (rat cerebral cortex); from tissue; host or cells: rat cerebral cortex
T2 sequence (P19327 1-422): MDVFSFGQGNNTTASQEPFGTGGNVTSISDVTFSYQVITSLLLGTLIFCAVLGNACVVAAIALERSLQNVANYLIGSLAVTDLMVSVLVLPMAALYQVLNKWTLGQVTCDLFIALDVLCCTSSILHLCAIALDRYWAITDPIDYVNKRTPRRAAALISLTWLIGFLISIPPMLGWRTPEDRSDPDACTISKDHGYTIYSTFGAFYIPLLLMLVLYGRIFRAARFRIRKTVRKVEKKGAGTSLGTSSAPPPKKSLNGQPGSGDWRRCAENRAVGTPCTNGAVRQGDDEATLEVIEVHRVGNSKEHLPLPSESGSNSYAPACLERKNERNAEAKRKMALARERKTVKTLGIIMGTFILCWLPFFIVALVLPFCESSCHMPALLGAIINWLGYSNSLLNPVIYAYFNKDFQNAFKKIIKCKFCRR

[5] = tested on: wild-type zebrafish (ZF) larvae; assay: PTZ-induced seizures in wild-type zebrafish larvae, behavioral (locomotor) assay; assay type: in vivo; conditions: wt zebrafish; p>0.05 vs. VHC+PTZ
[6] = tested on: T3, Na channel; assay: Competitive radioligand binding assay, Na channel; parameters: species or system Rat; conditions: test article 1×10^−6 and 1×10^−5 mol/L; rat brain
T3 construct: other: test article 1×10^−6 and 1×10^−5 mol/L; rat brain

[7] = target: hNav1.5 (Homo sapiens, UniProt Q14524); assay: Ion channel profiling, IonFlux HT automated patch clamp, hNav1.5
[8] = target: T1, human β-2 adrenergic receptor; assay: β-2 adrenergic receptor antagonist assay, agonist-induced cAMP production (HTRF); assay type: cell-based; parameters: expressed in transfected cells; host or cells: HEK-293; conditions: inhibition of isoproterenol-induced cAMP production
Procedure: Transfected HEK-293 cells expressing human β-1 adrenergic receptor, human β-2 adrenergic receptor, and human β3 adrenergic receptor, respectively, were prepared using cloned human cDNA. See H FRIELLE, T., COLLINS, S., DANIEL, K. W., CARON, M. G., LEFKOWITZ, R. J., KOBILKA, B. K. (1987), Cloning of the cDNA for the human beta1-adrenergic receptor, Proc. Natl. Acad. Sci. U.S.A., 84,7920, and BAKER, J. G. (2005) The selectivity of Beta-adrenoreceptor antagonists at the human Beta1, Beta2 and Beta3 adrenoreceptor, Brit.
Transfected cells were suspended in HBSS buffer (Invitrogen) complemented with 20 mM HEPES (pH 7.4) and 500 μM IBMX. […] The cells were then distributed in 96 well microplates (see FIG. 15 for plating densities).
After plating, the cells were induced by adding reference agonist. See FIG. 15 for reference agonists and concentrations used for each assay. […] The cells were then incubated 30 minutes at room temperature.
Subsequently, the cells were lysed and a fluorescence acceptor (D2-labeled cAMP) and a fluorescence donor (anti-cAMP antibody labeled with europium cryptate) were added to the wells.
Standard reference antagonists were tested in each experiment at several concentrations to generate a concentration-response curve from which its IC50 value is calculated.
EC50 values (concentration producing a half-maximal response) and IC50 values (concentration causing a half-maximal inhibition of the control agonist response) were determined by non-linear regression analysis of the concentration-response curves generated with mean replicate values using Hill equation curve fitting: […]
For the antagonists, the apparent dissociation constants (KB) were calculated using the modified Cheng Prusoff equation:
KB=IC50/[1+(A/EC50A)], where

[9] = tested on: DBA/1 mice; assay: Audiogenic seizures (AGSz) in DBA/1 mice; assay type: in vivo, mouse
[10] = tested on: homozygous scn1Lab−/− mutant zebrafish; assay: Locomotor (behavioral) assay in homozygous scn1Lab−/− mutant zebrafish larvae (Dravet syndrome model); assay type: in vivo; conditions: 25, 50 or 100 μM for 24 h, 6 dpf larvae; p<0.05 vs. VHC
Procedure: (§1) ZF larvae were treated on 6 dpf with vehicle (VHC, 0.1% dimethyl sulfoxide, DMSO, or FA (25, 50 or 100 μM) for 24 h. Thereafter, the locomotor activity (behavior) was monitored by an automated tracking device. Subsequently, forebrain local field potentials and forebrain activity (LFPs, brain activity) were measured to confirm anticonvulsant effects of FA treatment, if indicated by the behavioral assays.

[11] = tested on: DBA/1 mice; assay: Seizure-induced respiratory arrest (S-IRA) in DBA/1 mice; assay type: in vivo, mouse
[12] = tested on: T4, β-Adrenergic (Non-selective); assay: Competitive radioligand binding assay, β-adrenergic (non-selective); parameters: species or system Rat; conditions: test article 1×10^−6 and 1×10^−5 mol/L; rat brain
T4 construct: β-1 adrenergic; other: test article 1×10^−6 and 1×10^−5 mol/L; rat brain

[13] = tested on: homozygous scn1Lab−/− mutant zebrafish; assay: Forebrain local field potential (LFP) recordings in homozygous scn1Lab−/− mutant zebrafish larvae; assay type: in vivo; conditions: 25, 50 or 100 μM for 24 h; p<0.05 vs. VHC
Procedure: as §1

T1 sequence (P07550 whole entry): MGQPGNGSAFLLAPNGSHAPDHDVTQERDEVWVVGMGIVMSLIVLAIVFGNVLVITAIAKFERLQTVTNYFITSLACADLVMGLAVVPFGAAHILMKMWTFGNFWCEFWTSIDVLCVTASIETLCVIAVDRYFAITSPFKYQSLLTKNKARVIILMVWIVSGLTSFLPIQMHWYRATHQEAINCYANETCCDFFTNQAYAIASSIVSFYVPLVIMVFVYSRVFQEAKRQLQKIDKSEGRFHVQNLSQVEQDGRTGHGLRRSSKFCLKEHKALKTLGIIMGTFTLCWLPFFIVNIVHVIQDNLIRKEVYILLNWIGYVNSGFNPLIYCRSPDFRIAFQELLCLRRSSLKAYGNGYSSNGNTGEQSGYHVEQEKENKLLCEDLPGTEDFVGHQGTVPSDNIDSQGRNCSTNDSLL
Sequence of hNav1.5 (Q14524 whole entry): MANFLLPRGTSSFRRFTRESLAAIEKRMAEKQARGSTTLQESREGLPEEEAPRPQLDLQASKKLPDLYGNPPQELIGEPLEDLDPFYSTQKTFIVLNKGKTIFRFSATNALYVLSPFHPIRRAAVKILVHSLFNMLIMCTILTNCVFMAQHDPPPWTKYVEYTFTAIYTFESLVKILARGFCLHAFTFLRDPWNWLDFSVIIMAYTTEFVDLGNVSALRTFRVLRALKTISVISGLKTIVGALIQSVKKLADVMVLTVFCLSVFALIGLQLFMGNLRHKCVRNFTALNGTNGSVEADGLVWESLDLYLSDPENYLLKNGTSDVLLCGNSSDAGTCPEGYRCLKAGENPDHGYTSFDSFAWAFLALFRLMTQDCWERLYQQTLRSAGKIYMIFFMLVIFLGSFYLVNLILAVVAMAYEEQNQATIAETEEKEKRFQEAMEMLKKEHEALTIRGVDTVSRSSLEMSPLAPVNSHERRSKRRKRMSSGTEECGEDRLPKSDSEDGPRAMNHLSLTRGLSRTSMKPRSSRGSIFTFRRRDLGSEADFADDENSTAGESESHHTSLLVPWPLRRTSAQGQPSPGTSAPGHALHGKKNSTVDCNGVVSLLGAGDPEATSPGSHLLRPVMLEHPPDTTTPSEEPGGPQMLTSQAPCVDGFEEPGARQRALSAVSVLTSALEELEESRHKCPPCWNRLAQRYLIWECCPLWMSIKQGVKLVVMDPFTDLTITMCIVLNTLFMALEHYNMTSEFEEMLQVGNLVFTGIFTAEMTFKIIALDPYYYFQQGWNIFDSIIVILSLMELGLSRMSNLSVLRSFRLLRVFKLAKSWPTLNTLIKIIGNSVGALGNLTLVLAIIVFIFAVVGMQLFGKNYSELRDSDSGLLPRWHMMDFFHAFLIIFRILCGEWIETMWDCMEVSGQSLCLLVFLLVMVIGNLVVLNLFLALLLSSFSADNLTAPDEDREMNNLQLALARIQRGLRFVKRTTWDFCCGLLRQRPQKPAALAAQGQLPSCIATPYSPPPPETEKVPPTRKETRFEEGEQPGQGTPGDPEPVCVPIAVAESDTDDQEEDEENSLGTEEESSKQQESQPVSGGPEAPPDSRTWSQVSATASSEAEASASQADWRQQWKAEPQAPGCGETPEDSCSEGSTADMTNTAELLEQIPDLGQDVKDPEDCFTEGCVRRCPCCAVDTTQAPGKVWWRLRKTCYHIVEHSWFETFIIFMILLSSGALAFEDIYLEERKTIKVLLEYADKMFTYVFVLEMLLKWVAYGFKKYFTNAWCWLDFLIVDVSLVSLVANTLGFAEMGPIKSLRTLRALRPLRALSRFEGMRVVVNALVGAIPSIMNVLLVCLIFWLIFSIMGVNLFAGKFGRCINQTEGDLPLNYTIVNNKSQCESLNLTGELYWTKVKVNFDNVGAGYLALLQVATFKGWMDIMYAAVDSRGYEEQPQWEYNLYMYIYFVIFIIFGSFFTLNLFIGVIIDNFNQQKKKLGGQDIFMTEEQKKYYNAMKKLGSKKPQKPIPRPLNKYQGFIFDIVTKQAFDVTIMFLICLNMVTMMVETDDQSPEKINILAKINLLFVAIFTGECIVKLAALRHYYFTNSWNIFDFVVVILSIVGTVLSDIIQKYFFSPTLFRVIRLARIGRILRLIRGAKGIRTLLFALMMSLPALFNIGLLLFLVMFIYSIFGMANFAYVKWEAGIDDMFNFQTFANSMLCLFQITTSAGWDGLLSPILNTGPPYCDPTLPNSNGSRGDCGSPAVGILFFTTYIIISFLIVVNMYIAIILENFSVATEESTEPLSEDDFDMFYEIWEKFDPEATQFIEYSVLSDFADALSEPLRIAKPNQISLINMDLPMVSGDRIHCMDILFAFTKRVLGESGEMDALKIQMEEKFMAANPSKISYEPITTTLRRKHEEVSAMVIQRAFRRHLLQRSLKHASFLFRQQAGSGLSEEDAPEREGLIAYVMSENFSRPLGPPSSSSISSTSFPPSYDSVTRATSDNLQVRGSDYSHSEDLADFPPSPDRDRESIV

**Q.** `CCNC(C)Cc1cccc(C(F)(F)F)c1` (racemic) [fenfluramine, (RS)—N-ethyl-1-[3-(trifluoromethyl)phenyl]propan-2-amine] was tested. Which “period of post-seizure aggression” value [1] did it give?
**A.** did not

**Q.** What about the “seizures in the mouse 6-Hz model” value ([1]; 1 h before 6-Hz 44 mA stimulation, p<0.05 vs. VHC) of the same compound?
**A.** significantly reduced seizures

**Q.** And the “dose attenuating dizocilpine-induced deficit in passive avoidance response (minimal active dose)” value ([2]; IP, 0.1 mg/kg not active)?
**A.** 0.3 mg/kg

**Q.** What about the “dizocilpine-induced deficit of passive avoidance learning” value ([2]; dizocilpine […], most active doses 0.3 and 1 mg/kg IP) of the same compound?
**A.** significantly attenuated

**Q.** And the “inhibition of receptor binding (tracer)” value [3]?
**A.** significantly inhibit

**Q.** What about the IC50 [4] of the same compound?
**A.** 573 nM

**Q.** And the Ki [4]?
**A.** 327 nM

**Q.** And the “inhibition of receptor binding (tracer)” value ([4]; test article 1×10^−6 and 1×10^−5 mol/L, rat cerebral cortex)?
**A.** significantly inhibit

**Q.** And the “antiseizure effect on PTZ-induced seizures” value [5]?
**A.** no observable antiseizure effects

**Q.** And the “inhibition of receptor binding (tracer)” value [6]?
**A.** significantly inhibit

**Q.** And the IC50 [7]?
**A.** > 30000 nM

**Q.** And the “antagonist activity at the beta-2 adrenergic receptor” value [8]?
**A.** some antagonist activity

**Q.** What about the seizure severity ([9]; 15 mg/kg, at 16h, p<0.05) of the same compound?
**A.** significantly reduced seizure severity

**Q.** What about the “time at which seizure susceptibility returned” value ([9]; 40 mg/kg) of the same compound?
**A.** 48 h

**Q.** And the seizures ([9]; 40 mg/kg, at 30 min, p<0.001)?
**A.** completely blocked seizures

**Q.** And the ED50 ([9]; Mus musculus, ip, 0.5 h, i.p., at 30 min, read-out: ED50, blockade of susceptibility to audiogenic seizures (AGSz))?
**A.** 31 mg/kg

**Q.** What about the “ED50, blockade of susceptibility to audiogenic seizures (AGSz)” value ([9]; i.p., at 30 min, listed as FFA) of the same compound?
**A.** 21.4 mg/kg

**Q.** And the “epileptiform behavior (locomotor activity)” value [10]?
**A.** significantly decreased

**Q.** What about the “effect on seizures and S-IRA” value ([11]; 5 mg/kg) of the same compound?
**A.** ineffective

**Q.** And the S-IRA ([11]; 15 mg/kg, at 16h, p<0.001)?
**A.** selective S-IRA blocking effect

**Q.** And the “time at which S-IRA susceptibility returned” value ([11]; 40 mg/kg)?
**A.** 72 h

**Q.** And the “S-IRA incidence and seizure severity” value ([11]; 10-20 mg/kg, at 8h)?
**A.** reduction in S-IRA incidence and seizure severity

**Q.** And the “S-IRA susceptibility and seizure severity” value ([11]; 10 and 15 mg/kg, at 12h)?
**A.** significantly (p<0.01) reduced S-IRA susceptibility and seizure severity

**Q.** And the ED50 ([11]; Mus musculus, ip, 0.5 h, read-out: ED50, blockade of seizure-induced respiratory arrest (S-IRA))?
**A.** 18.6 mg/kg

**Q.** What about the “time by which susceptibility to seizure and S-IRA returned” value ([11]; time course study, 5-20 mg/kg) of the same compound?
**A.** ≤ 48 h

**Q.** What about the “inhibition of receptor binding (tracer)” value [12] of the same compound?
**A.** significantly inhibit

**Q.** What about the “epileptiform brain activity (LFP recordings)” value [13] of the same compound?
**A.** anti-epileptiform activity was consistently confirmed
